Source: BindingDB's records for patent US20250026742 (Suzhou Ark Biopharmaceutical Co., 2025)

Each compound was assayed against Serine/threonine-protein kinase ATR (Homo sapiens, UniProt Q13535) (assay: ATR Enzyme Activity Inhibition Assay).
Procedure: Prepare various buffer systems required for the experiment:1. […] Prepare detection buffer: Dilute each of the anti-phospho-p53-Eu cryptate (Cisbio, Cat #61P08KA) and anti-GST-d2 (Cisbio, Cat #61GSTDLB) to 1 unit using HTRF detection buffer (Cisbio, Cat #62SDBRDF).Powdered compounds were dissolved in DMSO to from a stock solution at a concentration of 10 mM. The solution of compounds to be tested at a concentration of […] was performed a 3-fold dilution for 10 concentrations with DMSO. […] 5 μL of ATR was added to each well accordingly. Each well is incubated at 25° C. for 10 min, added with 5 μL of reaction substrate, incubated at 25° C. for 90 min and added with 10 μL of detection solution.

Sequence of Serine/threonine-protein kinase ATR (Q13535 whole entry): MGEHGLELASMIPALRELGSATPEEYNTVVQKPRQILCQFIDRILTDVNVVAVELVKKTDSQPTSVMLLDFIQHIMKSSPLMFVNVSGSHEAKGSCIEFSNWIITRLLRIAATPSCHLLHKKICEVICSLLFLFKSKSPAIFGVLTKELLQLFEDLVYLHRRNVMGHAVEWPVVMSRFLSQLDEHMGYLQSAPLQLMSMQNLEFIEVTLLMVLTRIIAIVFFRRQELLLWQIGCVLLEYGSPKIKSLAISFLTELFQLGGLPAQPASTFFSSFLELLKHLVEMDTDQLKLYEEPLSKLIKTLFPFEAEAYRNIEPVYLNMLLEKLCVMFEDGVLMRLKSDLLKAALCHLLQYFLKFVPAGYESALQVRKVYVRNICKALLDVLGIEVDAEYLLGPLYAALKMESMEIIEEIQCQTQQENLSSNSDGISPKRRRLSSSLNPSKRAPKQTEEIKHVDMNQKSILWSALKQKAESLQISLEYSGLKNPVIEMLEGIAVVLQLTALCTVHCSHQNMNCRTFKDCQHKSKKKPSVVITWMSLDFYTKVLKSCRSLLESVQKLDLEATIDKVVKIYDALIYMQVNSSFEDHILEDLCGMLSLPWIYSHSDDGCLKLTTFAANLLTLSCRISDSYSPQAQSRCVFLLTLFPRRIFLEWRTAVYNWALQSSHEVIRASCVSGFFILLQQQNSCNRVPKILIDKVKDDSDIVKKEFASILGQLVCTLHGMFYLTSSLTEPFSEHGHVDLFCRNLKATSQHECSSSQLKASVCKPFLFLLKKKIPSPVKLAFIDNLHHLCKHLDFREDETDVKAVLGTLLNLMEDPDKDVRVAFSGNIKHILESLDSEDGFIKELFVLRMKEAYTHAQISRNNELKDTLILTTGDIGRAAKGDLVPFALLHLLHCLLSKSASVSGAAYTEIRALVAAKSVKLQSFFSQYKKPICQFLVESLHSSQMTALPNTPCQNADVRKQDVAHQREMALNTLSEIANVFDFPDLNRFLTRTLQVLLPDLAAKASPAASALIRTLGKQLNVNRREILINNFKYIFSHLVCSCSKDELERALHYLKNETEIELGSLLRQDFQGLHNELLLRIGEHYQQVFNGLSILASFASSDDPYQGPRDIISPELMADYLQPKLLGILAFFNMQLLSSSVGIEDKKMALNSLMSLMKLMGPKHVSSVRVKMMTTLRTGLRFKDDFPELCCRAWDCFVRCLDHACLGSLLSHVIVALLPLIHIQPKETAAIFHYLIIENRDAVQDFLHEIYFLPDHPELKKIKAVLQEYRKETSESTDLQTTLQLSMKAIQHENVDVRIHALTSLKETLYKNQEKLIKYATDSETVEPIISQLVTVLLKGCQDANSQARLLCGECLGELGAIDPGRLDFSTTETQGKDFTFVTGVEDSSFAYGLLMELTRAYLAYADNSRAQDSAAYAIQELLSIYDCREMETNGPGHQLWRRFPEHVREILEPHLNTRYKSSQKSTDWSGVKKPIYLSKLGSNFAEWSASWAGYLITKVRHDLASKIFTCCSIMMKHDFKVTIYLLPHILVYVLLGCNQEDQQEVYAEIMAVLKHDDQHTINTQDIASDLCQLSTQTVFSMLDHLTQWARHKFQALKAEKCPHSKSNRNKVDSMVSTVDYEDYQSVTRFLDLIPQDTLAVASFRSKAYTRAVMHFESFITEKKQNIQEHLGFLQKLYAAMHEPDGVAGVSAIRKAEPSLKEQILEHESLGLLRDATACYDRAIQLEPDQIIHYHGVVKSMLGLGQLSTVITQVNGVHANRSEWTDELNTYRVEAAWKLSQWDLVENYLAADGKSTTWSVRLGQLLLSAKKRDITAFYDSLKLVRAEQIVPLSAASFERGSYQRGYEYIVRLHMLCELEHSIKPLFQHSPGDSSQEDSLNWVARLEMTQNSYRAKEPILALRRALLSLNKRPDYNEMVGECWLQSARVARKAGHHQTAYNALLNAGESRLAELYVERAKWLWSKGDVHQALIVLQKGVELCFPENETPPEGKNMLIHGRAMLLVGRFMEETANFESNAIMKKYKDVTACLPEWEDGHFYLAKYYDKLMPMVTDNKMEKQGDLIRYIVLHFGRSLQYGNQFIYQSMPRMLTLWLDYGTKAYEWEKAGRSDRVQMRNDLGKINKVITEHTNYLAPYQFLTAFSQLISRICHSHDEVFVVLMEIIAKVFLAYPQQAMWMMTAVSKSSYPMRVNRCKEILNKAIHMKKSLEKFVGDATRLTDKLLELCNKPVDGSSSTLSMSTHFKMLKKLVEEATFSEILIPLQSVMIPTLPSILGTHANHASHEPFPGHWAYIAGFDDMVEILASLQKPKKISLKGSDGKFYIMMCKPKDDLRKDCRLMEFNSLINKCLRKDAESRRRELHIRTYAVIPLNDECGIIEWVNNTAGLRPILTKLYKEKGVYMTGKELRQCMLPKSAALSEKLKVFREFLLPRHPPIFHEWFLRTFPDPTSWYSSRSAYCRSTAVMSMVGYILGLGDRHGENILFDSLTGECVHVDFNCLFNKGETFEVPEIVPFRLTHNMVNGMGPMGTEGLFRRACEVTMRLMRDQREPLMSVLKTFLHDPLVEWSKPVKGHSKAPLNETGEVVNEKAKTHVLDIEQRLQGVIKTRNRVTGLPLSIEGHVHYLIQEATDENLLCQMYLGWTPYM

IC50 | SMILES
2.53 nM | CN=S(C)(=O)c1ccc(-c2cnc(N)c(-c3cc(-c4ccc(CNC(=N)N)cc4)no3)n2)cc1 (stereo not drawn) [US20250026742, Example 12]
3.12 nM | CC(=N)Nc1ccc(-c2cc(-c3nc(-c4ccc(S(=O)(=O)C(C)C)cc4)cnc3N)on2)cc1 [US20250026742, Example 29]

SMILES | IC50
CC(C)S(=O)(=O)c1ccc(-c2cnc(N)c(-c3cc(-c4ccc(CNC(N)=O)cc4)no3)n2)cc1 [US20250026742, Example 9] | 1.83 nM
